Data on 40 molecules can be found in patent US20110112151A1, “COMPOUND CAPABLE OF INHIBITING 11-BETA HYDROXYSTERIOD DEHYDROGENASE” (priority 2008, published 2011).

T1 sequence (P28845 whole entry): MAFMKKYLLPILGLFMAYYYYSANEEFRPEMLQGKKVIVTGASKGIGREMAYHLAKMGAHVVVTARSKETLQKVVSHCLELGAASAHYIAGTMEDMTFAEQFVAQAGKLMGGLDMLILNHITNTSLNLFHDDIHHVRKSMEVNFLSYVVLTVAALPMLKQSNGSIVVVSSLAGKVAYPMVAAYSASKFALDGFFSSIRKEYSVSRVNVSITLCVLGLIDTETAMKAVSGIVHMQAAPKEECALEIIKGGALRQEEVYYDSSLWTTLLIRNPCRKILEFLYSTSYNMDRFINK

One experiment has as its target T1, 11β-HSD1 (Homo sapiens, UniProt P28845).
T1 construct: expressed in transfected cells; host or cells: HEK 293 (stably transfected, HEK 293/HSD11B1)
Briefly: 11β-HSD1 HEK assay (cell based assay, SPA). The settings on record: HEK293, read-out: Activity (inhibition of 11β-HSD1). The method, then:
11β-HSD1 HEK Assay Protocol (Cell Based Assay)
11β-HSD1 activity is measured in whole HEK 293 cells stably transfected with the HSD11B1 gene. Cells are incubated in 96-well microplates in the presence of tritiated substrate. Enzyme activity is determined by measuring the amount of tritated product by scintillation proximity assay (SPA). Assay plates contain internal high and low controls to allow calculation of percentage inhibition.
1. […] 2. When the cells are 80% confluent the medium is removed from each well. 100 μl fresh, serum-free, medium containing ^3H-cortisone and test compound in 1% DMSO is added to each well*. Control wells are also dispensed. […] 3. The plate is incubated at 37° C. for the required time period. 4. 50 μl of media is removed from each well and transferred to a microplate containing 100 μl of a pre-incubated mixture of anti-cortisol antibody and SPA bead. The mixture is incubated with gentle shaking until equilibrium is reached, before transferring to a scintillation counter to establish the enzyme activity in each sample.
10 μl of compound is dispensed into each well of a 96-well microplate in 10% DMSO at 100 μM concentration. 90 μl media containing ^3H-cortisone is added to each well. The compound/media/substrate mixture is then transferred to the assay plate containing the cells. […]
By inhibition is commonly meant the percentage by which the read-out fell short of the control. Take `Cc1nnc(S(=O)(=O)CC(=O)C23CC4CC(CC(C4)C2)C3)s1` [Example 79, 1-Adamantan-1-yl-2-(5-methyl-[1,3,4]thiadiazole-2-sulfonyl)-ethanone]: the inhibition at 1 µM is above 60%.

Staying with this experiment, now noted: HEK293; at 1 μM; whole HEK 293 cells stably transfected with the HSD11B1 gene, 3H-cortisone substrate; read-out: Activity (inhibition of 11β-HSD1).
As for `O=C(C[S+]([O-])Cc1ccc(Cl)nc1)C12CC3CC(CC(C3)C1)C2` (stereo not shown) [Example 65, 1-Adamantan-1-yl-2-(6-chloro-pyridin-3-ylmethanesulfinyl)-ethanone], the inhibition at 1 µM is above 60%.

Regarding `Cn1ccnc1SCC(=O)C1(c2ccc(Cl)cc2)CCCC1` [Example 41, 1-[1-(4-Chloro-phenyl)-cyclopentyl]-2-(1-methyl-1H-imidazol-2-ylsulfanyl)-ethanone], the inhibition at 1 µM was in the range of 20 to 60%.

For the molecule `Cc1cc(C)c(C(=O)COc2cccnc2)c(C)c1` [Example 72, 2-(Pyridin-3-yloxy)-1-(2,4,6-trimethyl-phenyl)-ethanone], the inhibition at 1 µM is below 20%.

For `Cc1cc(C)c(C(=O)CS(=O)(=O)c2ccccn2)c(C)c1` [Example 75, 2-(Pyridine-2-sulfonyl)-1-(2,4,6-trimethyl-phenyl)-ethanone], the inhibition at 1 µM is below 20%.

Turning to `O=C(CSc1ccccn1)C1(c2ccc(Cl)cc2)CCCCC1` [Example 47, 1-[1-(4-Chloro-phenyl)-cyclohexyl]-2-(pyridin-2-ylsulfanyl)-ethanone], the inhibition at 1 µM was 20 to 60%.

With `O=C(CSc1ccccn1)C1(c2ccc(Cl)cc2)CCC1` [Example 20, 1-[1-(4-Chloro-phenyl)-cyclobutyl]-2-(pyridin-2-ylsulfanyl)-ethanone], the inhibition at 1 µM fell in the range of 20 to 60%.

`CC(=O)Nc1nnc(S(=O)(=O)CC(=O)C23CC4CC(CC(C4)C2)C3)s1` [Example 93, N-(5-{[2-(Adamantan-1-yl)-2-oxoethane]sulfonyl}-1,3,4-thiadiazol-2-yl)acetamide]: the inhibition at 1 µM is above 60%.

`O=C(CS(=O)(=O)c1ccccn1)C1(c2ccc(Cl)cc2)CCC1` [Example 22]: the inhibition at 1 µM is below 20%.

For the molecule `O=C(C[S+]([O-])c1ccc(C(F)(F)F)cn1)C12CC3CC(CC(C3)C1)C2` (stereo not shown) [Example 68, 1-Adamantan-1-yl-2-(5-trifluoromethyl-pyridine-2-sulfinyl)-ethanone], the inhibition at 1 µM lay in the range of 20 to 60%.

As to `COc1cncc(COCC(=O)C23CC4CC(CC(C4)C2)C3)c1` [Example 98, 1-Adamantan-1-yl-2-(5-methoxy-pyridin-3-ylmethoxy)-ethanone], the inhibition at 1 µM is above 60%.

As to `O=C(CS(=O)(=O)c1ccccn1)C1(c2ccc(Cl)cc2)CCCCC1` [Example 48, 1-[1-(4-Chloro-phenyl)-cyclohexyl]-2-(pyridine-2-sulfonyl)-ethanone], the inhibition at 1 µM lay in the range of 20 to 60%.

`Cc1nnc([S+]([O-])CC(=O)C23CC4CC(CC(C4)C2)C3)s1` (stereo not shown) [Example 80, 1-Adamantan-1-yl-2-(5-methyl-[1,3,4]thiadiazole-2-sulfinyl)-ethanone]: the inhibition at 1 µM is above 60%.

Regarding `O=C(COc1cccc(Cl)n1)C12CC3CC(CC(C3)C1)C2` [Example 58, 1-Adamantan-1-yl-2-(6-chloro-pyridin-2-yloxy)-ethanone], the inhibition at 1 µM is 20 to 60%.

Turning to `O=C(COCc1ccc(C(F)(F)F)nc1)C12CC3CC(CC(C3)C1)C2` [Example 56, 1-Adamantan-1-yl-2-(6-trifluoromethyl-pyridin-3-ylmethoxy)-ethanone], the inhibition at 1 µM was in the range of 20 to 60%.

Turning to `O=C(COc1ccc(C(F)(F)F)cn1)C12CC3CC(CC(C3)C1)C2` [Example 55, 1-Adamantan-1-yl-2-(5-trifluoromethyl-pyridin-2-yloxy)-ethanone], the inhibition at 1 µM fell in the range of 20 to 60%.

For the molecule `Cn1ccnc1S(=O)(=O)CC(=O)C1(c2ccc(Cl)cc2)CCCC1` [Example 43, 1-[1-(4-Chloro-phenyl)-cyclopentyl]-2-(1-methyl-1H-imidazole-2-sulfonyl)-ethanone], the inhibition at 1 µM fell in the range of 20 to 60%.

Turning to `Cn1ccnc1SCC(=O)C1(c2ccc(Cl)cc2)CCC1` [Example 21, 1-[1-(4-Chloro-phenyl)-cyclobutyl]-2-(1-methyl-1H-imidazol-2-ylsulfanyl)-ethanone], the inhibition at 1 µM was in the range of 20 to 60%.

As for `O=C(CS(=O)(=O)Cc1cccnc1)C12CC3CC(CC(C3)C1)C2` [Example 9, 1-Adamantan-1-yl-2-(pyridin-3-ylmethanesulfonyl)-ethanone], the inhibition at 1 µM is above 60%.

On to `Cn1ccnc1SCC(=O)C(C)(C)c1ccc(Cl)cc1` [Example 52, 3-(4-Chloro-phenyl)-3-methyl-1-(1-methyl-1H-imidazol-2-ylsulfanyl)-butan-2-one], for which the inhibition at 1 µM was above 60%.

In the case of `Cn1ccnc1[S+]([O-])CC(=O)C1(c2ccc(Cl)cc2)CCC1` (stereo not shown) [Example 25, 1-[1-(4-Chloro-phenyl)-cyclobutyl]-2-(1-methyl-1H-imidazole-2-sulfinyl)-ethanone], the inhibition at 1 µM was below 20%.

`Cn1cnnc1SCC(=O)C1(c2ccc(Cl)cc2)CCC1` [Example 108, 1-(1-(4-Chlorophenyl)cyclobutyl)-2-(4-methyl-4H-1,2,4-triazol-3-ylthio)ethanone]: the inhibition at 1 µM lay in the range of 20 to 60%.

In the case of `O=C(C[S+]([O-])c1ccncc1)C12CC3CC(CC(C3)C1)C2` (stereo not shown) [Example 33, 1-(adamantan-1-yl)-2-(pyridine-4-sulfinyl)ethan-1-one], the inhibition at 1 µM is above 60%.

Take `O=C(COc1cncc(Cl)c1)C12CC3CC(CC(C3)C1)C2` [Example 57, 1-Adamantan-1-yl-2-(5-chloro-pyridin-3-yloxy)-ethanone]: the inhibition at 1 µM is 20 to 60%.

For `O=C(CSc1ccccn1)C12CC3CC(CC(C3)C1)C2` [Example 12, 1-Adamantan-1-yl-2-(pyridin-2-ylsulfanyl)-ethanone], the inhibition at 1 µM is above 60%.

Regarding `Cn1ccnc1SCC(=O)C1(c2ccc(Cl)cc2)CC1` [Example 1, 1-[1-(4-Chloro-phenyl)-cyclopropyl]-2-(1-methyl-1H-imidazol-2-ylsulfanyl)-ethanone], the inhibition at 1 µM was above 60%.

For the molecule `Cn1cnnc1[S+]([O-])CC(=O)C1(c2ccc(Cl)cc2)CCC1` (stereo not shown) [Example 109, 1-(1-(4-Chlorophenyl)cyclobutyl)-2-(4-methyl-4H-1,2,4-triazol-3-ylsulfinyl)ethanone], the inhibition at 1 µM was below 20%.

With `Cn1ccnc1[S+]([O-])CC(=O)C1(c2ccc(Cl)cc2)CCCC1` (stereo not shown) [Example 44, 1-[1-(4-Chloro-phenyl)-cyclopentyl]-2-(1-methyl-1H-imidazole-2-sulfinyl)-ethanone], the inhibition at 1 µM was 20 to 60%.

With `O=C(CSCc1ccc(C(F)(F)F)nc1)C12CC3CC(CC(C3)C1)C2` [Example 59, 1-Adamantan-1-yl-2-(6-trifluoromethyl-pyridin-3-ylmethylsulfanyl)-ethanone], the inhibition at 1 µM fell in the range of 20 to 60%.

Consider `Cn1cnnc1SCC(=O)C1(c2ccc(Cl)cc2)CC1` [Example 100, 1-(1-(4-Chlorophenyl)cyclopropyl)-2-(4-methyl-4H-1,2,4-triazol-3-ylthio)ethanone], for which the inhibition at 1 µM lay in the range of 20 to 60%.

Consider `Cc1ccc(OCC(=O)C(C)(C)c2ccc(Cl)cc2)cn1` [Example 71, 3-(4-Chloro-phenyl)-3-methyl-1-(6-methyl-pyridin-3-yloxy)-butan-2-one], for which the inhibition at 1 µM is above 60%.

Regarding `Cc1cccc(S(=O)(=O)CC(=O)C23CC4CC(CC(C4)C2)C3)n1` [Example 30, 1-(adamantan-1-yl)-2-[(6-methylpyridine-2-)sulfonyl]ethan-1-one], the inhibition at 1 µM is above 60%.

Take `Cc1cc(C)c(C(=O)COc2ccc(C)nc2)c(C)c1` [Example 70, 2-(6-Methyl-pyridin-3-yloxy)-1-(2,4,6-trimethyl-phenyl)-ethanone]: the inhibition at 1 µM is below 20%.

As to `O=C(CS(=O)(=O)Cc1ccncc1)C12CC3CC(CC(C3)C1)C2` [Example 83, 1-Adamantan-1-yl-2-(pyridin-4-ylmethanesulfonyl)-ethanone], the inhibition at 1 µM is above 60%.

As to `Cn1ccnc1[S+]([O-])CC(=O)C1(c2ccc(Cl)cc2)CC1` (stereo not shown) [Example 2, 1-[1-(4-Chloro-phenyl)-cyclopropyl]-2-(1-methyl-1H-imidazole-2-sulfinyl)-ethanone], the inhibition at 1 µM is below 20%.

`O=C(CSCc1ccncc1)C12CC3CC(CC(C3)C1)C2` [Example 81, 1-Adamantan-1-yl-2-(pyridin-4-ylmethylsulfanyl)-ethanone]: the inhibition at 1 µM was above 60%.

As to `Cc1cc(C)c(C(=O)C[S+]([O-])c2ccccn2)c(C)c1` (stereo not shown) [Example 82, 1-mesityl-2-(pyridin-2-ylsulfinyl)ethanone], the inhibition at 1 µM is below 20%.

In the case of `Cn1cnnc1SCC(=O)C(C)(C)c1ccc(Cl)cc1` [Example 99, 3-(4-Chlorophenyl)-3-methyl-1-(4-methyl-4H-1,2,4-triazol-3-ylthio)butan-2-one], the inhibition at 1 µM is 20 to 60%.

Consider `O=C(CSc1ccccn1)C1(c2ccc(Cl)cc2)CC1` [Example 4, 1-[1-(4-Chloro-phenyl)-cyclopropyl]-2-(pyridin-2-ylsulfanyl)-ethanone], for which the inhibition at 1 µM is below 20%.

Still in this experiment, the particulars now being: at 1 μM; whole HEK 293 cells stably transfected with the HSD11B1 gene, 3H-cortisone substrate.
`Cn1ccnc1S(=O)(=O)CC(=O)C1(c2ccc(Cl)cc2)CCCCC1` [Example 45, 1-[1-(4-Chloro-phenyl)-cyclohexyl]-2-(1-methyl-H-imidazole-2-sulfonyl)-ethanone]: the “Activity (inhibition of 11β-HSD1)” value was “b (from 20 to 60% inhibition of 11β-HSD1 at 1 μM)”.
